ChEMBL document CHEMBL3813667, “Triterpene sapogenin-polyarginine conjugates exhibit promising antibacterial activity against Gram-positive strains” (Bioorg Med Chem, 2016)
≈ marks a conversion by molar mass, not a printed value. Calls of active or inactive are those of the source. The rule behind the calls is not given here.

Assays:
Staphylococcus aureus [1] = assay: Antibacterial activity against Staphylococcus aureus ATCC 25923 after 16 hrs by broth microdilution method; type: functional; details: ATCC 25923, 16 h
[2] = Solubility of the compound in water at 40 mg sonicated for 15 mins at 25 degC measured after 5 hrs; type: physicochemical
Bacillus spizizenii [3] = assay: Antibacterial activity against Bacillus subtilis ATCC 6633 after 16 hrs by broth microdilution method; type: functional; details: ATCC 6633, 16 h
Escherichia coli [4] = assay: Antibacterial activity against Escherichia coli ATCC 25922 after 16 hrs by broth microdilution method; type: functional; details: ATCC 25922, 16 h
[5] = Toxicity against human erythrocytes assessed as hemolysis after 1 hr by spectrophotometric analysis; type: cell-based, Erythrocyte
[6] = Therapeutic index, ratio of HC50 for human erythrocytes to MIC for Staphylococcus aureus ATCC 25923; details: read-out: TI
[7] = Therapeutic index, ratio of HC50 for human erythrocytes to MIC for Bacillus subtilis ATCC 6633; details: read-out: TI
[8] = Metabolic stability in human plasma assessed as compound remaining after 6 hrs by HPLC analysis; type: ADME, cell-free; details: read-out: Stability
[9] = Metabolic stability in human plasma assessed as compound remaining after 18 hrs by HPLC analysis; type: ADME, cell-free; details: read-out: Stability
MCF7 = assay: Cytotoxicity against human MCF7 cells assessed as cell viability at 62.5 ug/ml after 6 hrs by spectroscopic analysis; type: cell-based; details: mcf7, 6 h
Staphylococcus aureus [10] = assay: Antibacterial activity against Staphylococcus aureus ATCC 25923 assessed as cell lysis at 4 times MIC after 2 hrs by transmission electron microscopic analysis; type: functional, organism-based
[11] = Selectivity index, ratio of cytotoxicity for human MCF7 cells to MIC for Bacillus subtilis ATCC 6633; type: toxicity, cell-based; details: read-out: Selectivity Index
Staphylococcus aureus [12] = assay: Antibacterial activity against Staphylococcus aureus ATCC 25923 at 1 mg/ml up to 18 hrs by broth microdilution method in presence of human plasma; type: functional; details: ATCC 25923, Plasma
Staphylococcus aureus [13] = assay: Antibacterial activity against Staphylococcus aureus ATCC 25923 at 1 mg/ml after 3 hrs by broth microdilution method in presence of human plasma; type: functional; details: ATCC 25923, Plasma
Staphylococcus aureus [14] = assay: Antibacterial activity against Staphylococcus aureus ATCC 25923 assessed as disruption of cell membrane at 4 times MIC after 2 hrs by DAPI/propidium iodide dye staining based confocal laser scanning microscopic analysis; type: functional, organism-based
Staphylococcus aureus [15] = assay: Ratio of MIC for antibacterial activity against Staphylococcus aureus ATCC 25923 in absence of human plasma to MIC for antibacterial activity against Staphylococcus aureus ATCC 25923 in presence of human plasma; type: functional
Staphylococcus aureus [16] = assay: Antibacterial activity against Staphylococcus aureus ATCC 25923 after 16 hrs by broth microdilution method in presence of peptide-R3; type: functional; details: ATCC 25923, 16 h
Bacillus spizizenii [17] = assay: Antibacterial activity against Bacillus subtilis ATCC 6633 after 16 hrs by broth microdilution method in presence of peptide-R3; type: functional; details: ATCC 6633, 16 h
Escherichia coli [18] = assay: Antibacterial activity against Escherichia coli ATCC 25922 after 16 hrs by broth microdilution method in presence of peptide-R3; type: functional; details: ATCC 25922, 16 h

MIC (Staphylococcus aureus [1])	solubility at 5 h [2]	MIC (Bacillus spizizenii [3])	MIC (Escherichia coli [4])	remaining at 6 h [8]	remaining at 18 h [9]	MIC (Staphylococcus aureus [12])	MIC (Staphylococcus aureus [13])	Molecule	HC50 at 1 h [5]	selectivity ratio [6]	selectivity ratio [7]	Activity (MCF7)	Activity (Staphylococcus aureus [10])	selectivity ratio [11]	Activity (Staphylococcus aureus [14])	Ratio (Staphylococcus aureus [15])	MIC (Staphylococcus aureus [16])	MIC (Bacillus spizizenii [17])	MIC (Escherichia coli [18])
3.7 µM (≈ 3.94 µg/mL)	98 mg/mL (≈ 92.1 mM)	3.7 µM (≈ 3.94 µg/mL)	14.7 µM (≈ 15.6 µg/mL)					C=C(C)[C@@H]1CC[C@]2(C(=O)OCc3cn(CC(=O)N[C@@H](CCCNC(=N)N)C(=O)N[C@@H](CCCNC(=N)N)C(=O)N[C@@H](CCCNC(=N)N)C(=O)O)nn3)CC[C@]3(C)[C@H](CC[C@@H]4[C@@]5(C)CC[C@H](O)C(C)(C)[C@@H]5CC[C@]43C)[C@@H]12	80 µM	22	22								
5.7 µM (≈ 7.85 µg/mL)	220 mg/mL (≈ 160 mM)	2.8 µM (≈ 3.85 µg/mL)	> 91 µM					C=C(C)[C@@H]1CC[C@]2(C(=O)OCc3cn(CC(=O)N[C@@H](CCCNC(=N)N)C(=O)N[C@@H](CCCNC(=N)N)C(=O)N[C@@H](CCCNC(=N)N)C(=O)N[C@@H](CCCNC(=N)N)C(=O)N[C@@H](CCCNC(=N)N)C(=O)O)nn3)CC[C@]3(C)[C@H](CC[C@@H]4[C@@]5(C)CC[C@H](O)C(C)(C)[C@@H]5CC[C@]43C)[C@@H]12	35 µM	6	12								
	636 mg/mL (≈ 345 mM)							C=C(C)[C@@H]1CC[C@]2(C(=O)OCc3cn(CC(=O)N[C@@H](CCCNC(=N)N)C(=O)N[C@@H](CCCNC(=N)N)C(=O)N[C@@H](CCCNC(=N)N)C(=O)N[C@@H](CCCNC(=N)N)C(=O)N[C@@H](CCCNC(=N)N)C(=O)N[C@@H](CCCNC(=N)N)C(=O)N[C@@H](CCCNC(=N)N)C(=O)N[C@@H](CCCNC(=N)N)C(=O)O)nn3)CC[C@]3(C)[C@H](CC[C@@H]4[C@@]5(C)CC[C@H](O)C(C)(C)[C@@H]5CC[C@]43C)[C@@H]12	55 µM	13	13								
1.5 µM		1.5 µM	3.1 µM	54%	1%			H-GIGKFLKKAKKFGKAFVKILKK-OH	153 µM	100	100								
3.5 µM (≈ 3.87 µg/mL)		1.8 µM (≈ 1.99 µg/mL)	> 113 µM		87%	3.5 µM	3.5 µM	C=C(C)[C@@H]1CC[C@]2(C(=O)O)CC[C@]3(C)[C@H](CC[C@@H]4[C@@]5(C)CC[C@H](OC(=O)CCc6cn(CC(=O)N[C@@H](CCCNC(=N)N)C(=O)N[C@@H](CCCNC(=N)N)C(=O)N[C@@H](CCCNC(=N)N)C(=O)O)nn6)C(C)(C)[C@@H]5CC[C@]43C)[C@@H]12	215 µM	62	125	Non-toxic	Active	20	Active	2			

Molecule	MIC (Staphylococcus aureus [1])	solubility at 5 h [2]	MIC (Bacillus spizizenii [3])	MIC (Escherichia coli [4])	remaining at 6 h [8]	remaining at 18 h [9]	MIC (Staphylococcus aureus [12])	MIC (Staphylococcus aureus [13])	HC50 at 1 h [5]	selectivity ratio [6]	selectivity ratio [7]	Activity (MCF7)	Activity (Staphylococcus aureus [10])	selectivity ratio [11]	Activity (Staphylococcus aureus [14])	Ratio (Staphylococcus aureus [15])	MIC (Staphylococcus aureus [16])	MIC (Bacillus spizizenii [17])	MIC (Escherichia coli [18])
C=C(C)[C@@H]1CC[C@]2(C(=O)O)CC[C@]3(C)[C@H](CC[C@@H]4[C@@]5(C)CC[C@H](O)C(C)(C)[C@@H]5CC[C@]43C)[C@@H]12 [BETULINIC ACID]	547 µM (≈ 250 µg/mL)		547 µM (≈ 250 µg/mL)	> 1100 µM													> 531 µM	> 531 µM	> 531 µM
